Source: PubChem BioAssay AID2060897 (Molecular Pharmacology Branch, DTP, NCI, 2025)
pIC50: −log10 of the molar value.

Tested on: 966289-007-R4-J1-PDC complex spheroid viability
Test: Anticancer human tumor 966289-007-R4-J1-PDC patient-derived pancreatic adenocarcinoma cell line growth inhibition [RAS]
Settings: for pIC50: curve of first compound; for viability, T/C: stronger effect = lower value; active means viability on the fitted dose curve at most 10% of control; inactive means the rest
How it was run: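 Tumour cells grown as complex spheroids with HUVEC endothelial cells and mesenchymal stem cells, treated with RAS pathway inhibitor combinations. Each agent spans half-log steps from near clinical Cmax, or 10 microM where Cmax is unknown.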

[1] = second compound 0.000949 µM, first compound 0.0316 µM
[2] = second compound 0.000949 µM, first compound 0.1 µM
[3] = second compound 0.000949 µM, first compound 0.316 µM
[4] = second compound 0.000949 µM, first compound 1 µM
[5] = second compound 0.000949 µM, first compound 3.16 µM
[6] = second compound 0.000949 µM, first compound 10 µM
[7] = second compound 0.003 µM, first compound 0.0316 µM
[8] = second compound 0.003 µM, first compound 0.1 µM
[9] = second compound 0.003 µM, first compound 0.316 µM
[10] = second compound 0.003 µM, first compound 1 µM
[11] = second compound 0.003 µM, first compound 3.16 µM
[12] = second compound 0.003 µM, first compound 10 µM
[13] = second compound 0.00949 µM, first compound 0.0316 µM
[14] = second compound 0.00949 µM, first compound 0.1 µM
[15] = second compound 0.00949 µM, first compound 0.316 µM
[16] = second compound 0.00949 µM, first compound 1 µM
[17] = second compound 0.00949 µM, first compound 3.16 µM
[18] = second compound 0.00949 µM, first compound 10 µM
[19] = second compound 0.03 µM, first compound 0.0316 µM
[20] = second compound 0.03 µM, first compound 0.1 µM
[21] = second compound 0.03 µM, first compound 0.316 µM
[22] = second compound 0.03 µM, first compound 1 µM
[23] = second compound 0.03 µM, first compound 3.16 µM
[24] = second compound 0.03 µM, first compound 10 µM
[25] = second compound 0.0949 µM, first compound 0.0316 µM
[26] = second compound 0.0949 µM, first compound 0.1 µM
[27] = second compound 0.0949 µM, first compound 0.316 µM
[28] = second compound 0.0949 µM, first compound 1 µM
[29] = second compound 0.0949 µM, first compound 3.16 µM
[30] = second compound 0.0949 µM, first compound 10 µM
[31] = second compound 0.3 µM, first compound 0.0316 µM
[32] = second compound 0.3 µM, first compound 0.1 µM
[33] = second compound 0.3 µM, first compound 0.316 µM
[34] = second compound 0.3 µM, first compound 1 µM
[35] = second compound 0.3 µM, first compound 3.16 µM
[36] = second compound 0.3 µM, first compound 10 µM
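Further: spheroids exposed to agents for one week before readout.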
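Wherever viability, T/C is given: percent viability relative to DMSO vehicle control wells as 100%.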

CC(C)NCC(C(=O)N1CCN(c2ncnc3c2C(C)CC3O)CC1)c1ccc(Cl)cc1 (stereo not drawn) + CCn1c(-c2cccnc2C(C)OC)c2c3cc(ccc31)N1CCOC(CC(NC(=O)C(C(C)C)N(C)C(=O)C3(F)CCN(C(=O)C#CC(C)(C)N(C)C)CC3)C(=O)N3CCCC(N3)C(=O)OCC(C)(C)C2)C1
5.31: pIC50 (second compound 0.003 µM)
5.56: pIC50 (second compound 0.000949 µM)
5.27: pIC50 (second compound 0.3 µM)
inactive: viability, T/C [1] 99.4% | viability, T/C [2] 94.4% | viability, T/C [3] 117% | viability, T/C [4] 85.7% | viability, T/C [5] 46.3% | viability, T/C [6] 28.5% | viability, T/C [7] 99.2% | viability, T/C [8] 82.3% | viability, T/C [9] 98.9% | viability, T/C [10] 94.6% | viability, T/C [11] 62.2% | viability, T/C [12] 29.4% | viability, T/C [13] 70.3% | viability, T/C [14] 89.2% | viability, T/C [15] 97.2% | viability, T/C [16] 114% | viability, T/C [17] 62% | viability, T/C [18] 33.2% | viability, T/C [19] 57.3% | viability, T/C [20] 72.6% | viability, T/C [21] 103% | viability, T/C [22] 92.4% | viability, T/C [23] 62.3% | viability, T/C [24] 41.1% | viability, T/C [25] 63.9% | viability, T/C [26] 94.5% | viability, T/C [27] 126% | viability, T/C [28] 90.8% | viability, T/C [29] 75.6% | viability, T/C [30] 35.9% | viability, T/C [31] 92.5% | viability, T/C [32] 97% | viability, T/C [33] 107% | viability, T/C [34] 99.9% | viability, T/C [35] 58% | viability, T/C [36] 40.4%
5.18: pIC50 (second compound 0.0949 µM)
5.21: pIC50 (second compound 0.03 µM)
5.29: pIC50 (second compound 0.00949 µM)

CC(C)n1nc(-c2ccc3oc(N)nc3c2)c2c(N)ncnc21 + CCn1c(-c2cccnc2C(C)OC)c2c3cc(ccc31)N1CCOC(CC(NC(=O)C(C(C)C)N(C)C(=O)C3(F)CCN(C(=O)C#CC(C)(C)N(C)C)CC3)C(=O)N3CCCC(N3)C(=O)OCC(C)(C)C2)C1
7.50: pIC50 (second compound 0.03 µM)
inactive: viability, T/C (second compound 0.000949 µM, first compound 0.000316 µM) 101% | viability, T/C (second compound 0.000949 µM, first compound 0.001 µM) 88.1% | viability, T/C (second compound 0.000949 µM, first compound 0.00316 µM) 133% | viability, T/C (second compound 0.000949 µM, first compound 0.01 µM) 73.4% | viability, T/C [1] 45.9% | viability, T/C [2] 14.3% | viability, T/C (second compound 0.003 µM, first compound 0.000316 µM) 82.1% | viability, T/C (second compound 0.003 µM, first compound 0.001 µM) 102% | viability, T/C (second compound 0.003 µM, first compound 0.00316 µM) 116% | viability, T/C (second compound 0.003 µM, first compound 0.01 µM) 75.9% | viability, T/C [7] 50.8% | viability, T/C [8] 15.4% | viability, T/C (second compound 0.00949 µM, first compound 0.000316 µM) 67.1% | viability, T/C (second compound 0.00949 µM, first compound 0.001 µM) 111% | viability, T/C (second compound 0.00949 µM, first compound 0.00316 µM) 95.8% | viability, T/C (second compound 0.00949 µM, first compound 0.01 µM) 90.2% | viability, T/C [13] 46.1% | viability, T/C [14] 20.3% | viability, T/C (second compound 0.03 µM, first compound 0.000316 µM) 56.9% | viability, T/C (second compound 0.03 µM, first compound 0.001 µM) 96.6% | viability, T/C (second compound 0.03 µM, first compound 0.00316 µM) 111% | viability, T/C (second compound 0.03 µM, first compound 0.01 µM) 91.8% | viability, T/C [19] 50.1% | viability, T/C [20] 15% | viability, T/C (second compound 0.0949 µM, first compound 0.000316 µM) 58.4% | viability, T/C (second compound 0.0949 µM, first compound 0.001 µM) 96% | viability, T/C (second compound 0.0949 µM, first compound 0.00316 µM) 106% | viability, T/C (second compound 0.0949 µM, first compound 0.01 µM) 81.3% | viability, T/C [25] 48.4% | viability, T/C [26] 18.2% | viability, T/C (second compound 0.3 µM, first compound 0.000316 µM) 115% | viability, T/C (second compound 0.3 µM, first compound 0.001 µM) 96.7% | viability, T/C (second compound 0.3 µM, first compound 0.00316 µM) 84% | viability, T/C (second compound 0.3 µM, first compound 0.01 µM) 89.7% | viability, T/C [31] 38.6% | viability, T/C [32] 16.4%
7.53: pIC50 (second compound 0.003 µM) | pIC50 (second compound 0.0949 µM)
7.54: pIC50 (second compound 0.00949 µM)
7.61: pIC50 (second compound 0.000949 µM) | pIC50 (second compound 0.3 µM)

CC(Nc1ccc2c(c1)OCCn1cc(N3C(=O)OCC3C(F)F)nc1-2)C(N)=O (stereo not drawn) + CCn1c(-c2cccnc2C(C)OC)c2c3cc(ccc31)N1CCOC(CC(NC(=O)C(C(C)C)N(C)C(=O)C3(F)CCN(C(=O)C#CC(C)(C)N(C)C)CC3)C(=O)N3CCCC(N3)C(=O)OCC(C)(C)C2)C1
< 5.00: pIC50 (second compound 0.000949 µM) | pIC50 (second compound 0.003 µM) | pIC50 (second compound 0.00949 µM) | pIC50 (second compound 0.03 µM) | pIC50 (second compound 0.0949 µM) | pIC50 (second compound 0.3 µM)
inactive: viability, T/C [1] 97.2% | viability, T/C [2] 114% | viability, T/C [3] 121% | viability, T/C [4] 77.1% | viability, T/C [5] 90.5% | viability, T/C [6] 74.9% | viability, T/C [7] 93.7% | viability, T/C [8] 99.9% | viability, T/C [9] 111% | viability, T/C [10] 83.4% | viability, T/C [11] 78.2% | viability, T/C [12] 86.1% | viability, T/C [13] 73.8% | viability, T/C [14] 105% | viability, T/C [15] 111% | viability, T/C [16] 92.6% | viability, T/C [17] 103% | viability, T/C [18] 77.3% | viability, T/C [19] 60.7% | viability, T/C [20] 94.2% | viability, T/C [21] 106% | viability, T/C [22] 82.3% | viability, T/C [23] 114% | viability, T/C [24] 88.5% | viability, T/C [25] 69.8% | viability, T/C [26] 91.7% | viability, T/C [27] 105% | viability, T/C [28] 108% | viability, T/C [29] 105% | viability, T/C [30] 82% | viability, T/C [31] 101% | viability, T/C [32] 94.8% | viability, T/C [33] 124% | viability, T/C [34] 97% | viability, T/C [35] 135% | viability, T/C [36] 73.8%

C[C@@H](NC(=O)c1ncnc(N)c1Cl)c1ncc(C(=O)Nc2cc(C(F)(F)F)c(Cl)cn2)s1 + CCn1c(-c2cccnc2C(C)OC)c2c3cc(ccc31)N1CCOC(CC(NC(=O)C(C(C)C)N(C)C(=O)C3(F)CCN(C(=O)C#CC(C)(C)N(C)C)CC3)C(=O)N3CCCC(N3)C(=O)OCC(C)(C)C2)C1
< 5.00: pIC50 (second compound 0.000949 µM) | pIC50 (second compound 0.003 µM) | pIC50 (second compound 0.00949 µM) | pIC50 (second compound 0.03 µM) | pIC50 (second compound 0.0949 µM) | pIC50 (second compound 0.3 µM)
inactive: viability, T/C [1] 115% | viability, T/C [2] 92.1% | viability, T/C [3] 91.9% | viability, T/C [4] 47.5% | viability, T/C [5] 66.5% | viability, T/C [6] 100% | viability, T/C [7] 92.5% | viability, T/C [8] 75.4% | viability, T/C [9] 118% | viability, T/C [10] 61% | viability, T/C [11] 72.3% | viability, T/C [12] 118% | viability, T/C [13] 70.2% | viability, T/C [14] 80.6% | viability, T/C [15] 71.3% | viability, T/C [16] 85% | viability, T/C [17] 115% | viability, T/C [18] 111% | viability, T/C [19] 55.4% | viability, T/C [20] 57.1% | viability, T/C [21] 81% | viability, T/C [22] 73.5% | viability, T/C [23] 120% | viability, T/C [24] 98.5% | viability, T/C [25] 55.5% | viability, T/C [26] 99.1% | viability, T/C [27] 87% | viability, T/C [28] 78.2% | viability, T/C [29] 106% | viability, T/C [30] 134% | viability, T/C [31] 65.6% | viability, T/C [32] 91.7% | viability, T/C [33] 90.5% | viability, T/C [34] 117% | viability, T/C [35] 146% | viability, T/C [36] 105%
